PMC8799717, “Pharmacological targeting PIKfyve and tubulin as an effective treatment strategy for double-hit lymphoma” (Cell Death Discovery, 2022)

Key:
Experiment in all cases: biochemical
Set-up in all cases: KINOMEscan active-site-directed competition binding panel, 468 kinases, percent of DMSO control at 1 uM
Conditions in all cases: KINOMEscan binding, percent of DMSO control; read-out: Ctrl%
SRMS = SRMS (Homo sapiens, UniProt Q9H3Y6)
SRPK2 = SRPK2 (Homo sapiens, UniProt P78362)
PRKD3 = PRKD3 (Homo sapiens, UniProt O94806)
FLT3 = FLT3 (Homo sapiens, UniProt P36888)
GRK3 = GRK3 (Homo sapiens, UniProt P35626)
MAP4K5 = MAP4K5 (Homo sapiens, UniProt Q9Y4K4)
EPHB4 = EPHB4 (Homo sapiens, UniProt P54760)
GRK7 = GRK7 (Homo sapiens, UniProt Q8WTQ7)
ERK3 = target: T1, ERK3 (Homo sapiens, UniProt Q16659)
T1 construct: gene MAPK6

BUB1 = BUB1 (Homo sapiens, UniProt O43683)
[1] = target: T2, RSK1(Kin.Dom.2-C-terminal) (Homo sapiens, UniProt Q15418)
T2 construct: gene RPS6KA1; Kin.Dom.2-C-terminal

GRK4 = GRK4 (Homo sapiens, UniProt P32298)
HUNK = HUNK (Homo sapiens, UniProt P57058)
PIK3CG = PIK3CG (Homo sapiens, UniProt P48736)
PAK3 = PAK3 (Homo sapiens, UniProt O75914)
DAPK2 = DAPK2 (Homo sapiens, UniProt Q9UIK4)
ULK2 = ULK2 (Homo sapiens, UniProt Q8IYT8)
FRK = FRK (Homo sapiens, UniProt P42685)
[2] = target: T3, ABL1(M351T)-phosphorylated (Homo sapiens, UniProt P00519, M351T)
T3 construct: phosphorylated

NLK = NLK (Homo sapiens, UniProt Q9UBE8)
EPHA2 = EPHA2 (Homo sapiens, UniProt P29317)
TAOK2 = TAOK2 (Homo sapiens, UniProt Q9UL54)
[3] = target: EGFR(L747-S752del, P753S) (Homo sapiens, UniProt P00533, DEL747-752/P753S)
CDK5 = CDK5 (Homo sapiens, UniProt Q00535)
Chain of CDK5 (Q00535 whole entry): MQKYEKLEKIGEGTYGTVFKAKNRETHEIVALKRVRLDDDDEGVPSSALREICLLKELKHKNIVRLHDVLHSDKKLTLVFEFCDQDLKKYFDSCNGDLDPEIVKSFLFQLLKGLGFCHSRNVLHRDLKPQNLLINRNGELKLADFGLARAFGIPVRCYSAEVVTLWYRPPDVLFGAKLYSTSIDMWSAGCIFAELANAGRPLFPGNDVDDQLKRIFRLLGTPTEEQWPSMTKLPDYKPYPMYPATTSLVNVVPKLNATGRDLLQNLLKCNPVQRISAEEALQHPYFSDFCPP

Chain of SRMS (Q9H3Y6 whole entry): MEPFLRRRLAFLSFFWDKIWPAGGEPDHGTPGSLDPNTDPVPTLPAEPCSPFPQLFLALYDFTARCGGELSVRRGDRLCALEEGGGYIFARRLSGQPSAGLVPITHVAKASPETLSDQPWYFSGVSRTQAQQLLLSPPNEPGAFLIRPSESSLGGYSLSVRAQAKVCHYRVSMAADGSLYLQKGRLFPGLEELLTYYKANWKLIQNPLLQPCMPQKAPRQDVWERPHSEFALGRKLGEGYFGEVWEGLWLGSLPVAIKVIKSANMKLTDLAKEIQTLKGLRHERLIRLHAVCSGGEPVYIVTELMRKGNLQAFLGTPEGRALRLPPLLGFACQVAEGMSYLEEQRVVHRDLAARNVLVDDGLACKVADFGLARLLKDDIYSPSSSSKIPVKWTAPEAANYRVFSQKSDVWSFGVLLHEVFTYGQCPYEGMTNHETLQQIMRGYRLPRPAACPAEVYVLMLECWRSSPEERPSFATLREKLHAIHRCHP
Chain of EPHB4 (P54760 whole entry): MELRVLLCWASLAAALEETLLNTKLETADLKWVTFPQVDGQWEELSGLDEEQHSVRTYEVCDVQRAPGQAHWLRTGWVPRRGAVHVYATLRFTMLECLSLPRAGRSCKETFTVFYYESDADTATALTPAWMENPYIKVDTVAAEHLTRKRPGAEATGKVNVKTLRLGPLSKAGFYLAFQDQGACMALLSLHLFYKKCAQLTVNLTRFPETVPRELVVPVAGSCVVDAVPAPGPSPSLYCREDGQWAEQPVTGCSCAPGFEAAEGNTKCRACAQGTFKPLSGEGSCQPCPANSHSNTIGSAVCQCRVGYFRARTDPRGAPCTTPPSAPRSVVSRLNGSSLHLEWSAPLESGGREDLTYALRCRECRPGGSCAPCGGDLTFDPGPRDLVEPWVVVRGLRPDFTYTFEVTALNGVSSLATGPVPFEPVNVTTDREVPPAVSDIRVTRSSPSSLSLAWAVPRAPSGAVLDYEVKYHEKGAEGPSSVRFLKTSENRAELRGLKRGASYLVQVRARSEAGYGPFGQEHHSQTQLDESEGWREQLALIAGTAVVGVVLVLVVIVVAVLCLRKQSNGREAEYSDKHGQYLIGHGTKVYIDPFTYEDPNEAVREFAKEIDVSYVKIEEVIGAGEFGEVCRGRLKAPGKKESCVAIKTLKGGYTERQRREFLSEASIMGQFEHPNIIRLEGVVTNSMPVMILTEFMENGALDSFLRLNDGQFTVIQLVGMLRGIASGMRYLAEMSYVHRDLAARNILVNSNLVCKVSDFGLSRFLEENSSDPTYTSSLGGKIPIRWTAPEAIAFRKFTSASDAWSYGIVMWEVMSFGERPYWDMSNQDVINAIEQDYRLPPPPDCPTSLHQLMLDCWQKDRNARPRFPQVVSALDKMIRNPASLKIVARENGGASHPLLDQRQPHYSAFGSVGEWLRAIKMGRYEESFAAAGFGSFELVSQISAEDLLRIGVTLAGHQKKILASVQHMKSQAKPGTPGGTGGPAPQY
Chain of EPHA2 (P29317 whole entry): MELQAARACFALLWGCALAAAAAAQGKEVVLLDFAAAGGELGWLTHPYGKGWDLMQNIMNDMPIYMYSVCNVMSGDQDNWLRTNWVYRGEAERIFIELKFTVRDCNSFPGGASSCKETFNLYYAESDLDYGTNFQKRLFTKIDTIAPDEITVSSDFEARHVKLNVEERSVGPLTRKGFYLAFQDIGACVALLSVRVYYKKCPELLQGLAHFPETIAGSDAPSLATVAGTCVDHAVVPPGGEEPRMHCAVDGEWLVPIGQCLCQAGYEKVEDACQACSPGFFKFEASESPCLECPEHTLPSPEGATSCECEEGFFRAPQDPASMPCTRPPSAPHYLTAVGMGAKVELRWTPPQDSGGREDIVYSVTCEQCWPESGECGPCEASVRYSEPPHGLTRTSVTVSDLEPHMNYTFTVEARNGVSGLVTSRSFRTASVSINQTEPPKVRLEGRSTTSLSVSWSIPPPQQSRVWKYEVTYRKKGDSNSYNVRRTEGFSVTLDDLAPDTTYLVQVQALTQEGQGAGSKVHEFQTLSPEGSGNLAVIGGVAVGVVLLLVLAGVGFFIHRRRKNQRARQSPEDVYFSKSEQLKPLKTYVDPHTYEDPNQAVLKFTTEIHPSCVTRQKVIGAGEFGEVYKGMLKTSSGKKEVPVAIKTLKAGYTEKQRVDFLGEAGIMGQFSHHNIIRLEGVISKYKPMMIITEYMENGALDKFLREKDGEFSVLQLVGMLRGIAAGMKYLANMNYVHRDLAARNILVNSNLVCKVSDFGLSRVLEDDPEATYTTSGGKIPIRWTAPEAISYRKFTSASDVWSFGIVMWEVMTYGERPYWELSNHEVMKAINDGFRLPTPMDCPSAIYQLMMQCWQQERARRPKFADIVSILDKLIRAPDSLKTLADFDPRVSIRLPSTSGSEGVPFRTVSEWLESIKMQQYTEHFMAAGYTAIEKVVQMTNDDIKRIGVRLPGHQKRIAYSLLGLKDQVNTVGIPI
Chain of PAK3 (O75914 whole entry): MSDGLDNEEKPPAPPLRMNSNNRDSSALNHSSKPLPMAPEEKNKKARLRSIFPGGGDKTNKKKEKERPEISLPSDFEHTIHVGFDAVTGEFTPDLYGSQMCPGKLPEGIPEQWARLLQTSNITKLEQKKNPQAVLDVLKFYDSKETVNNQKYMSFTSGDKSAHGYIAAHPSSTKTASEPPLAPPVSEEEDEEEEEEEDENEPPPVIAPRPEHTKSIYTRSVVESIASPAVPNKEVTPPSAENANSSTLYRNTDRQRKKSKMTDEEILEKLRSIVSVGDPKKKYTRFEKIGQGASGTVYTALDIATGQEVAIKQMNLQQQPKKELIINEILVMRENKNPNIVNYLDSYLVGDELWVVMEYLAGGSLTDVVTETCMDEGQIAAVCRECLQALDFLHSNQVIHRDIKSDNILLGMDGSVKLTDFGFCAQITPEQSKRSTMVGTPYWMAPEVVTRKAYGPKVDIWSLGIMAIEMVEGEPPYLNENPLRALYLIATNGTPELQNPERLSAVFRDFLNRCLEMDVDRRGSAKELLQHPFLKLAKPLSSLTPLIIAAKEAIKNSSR
T1 sequence (Q16659 whole entry): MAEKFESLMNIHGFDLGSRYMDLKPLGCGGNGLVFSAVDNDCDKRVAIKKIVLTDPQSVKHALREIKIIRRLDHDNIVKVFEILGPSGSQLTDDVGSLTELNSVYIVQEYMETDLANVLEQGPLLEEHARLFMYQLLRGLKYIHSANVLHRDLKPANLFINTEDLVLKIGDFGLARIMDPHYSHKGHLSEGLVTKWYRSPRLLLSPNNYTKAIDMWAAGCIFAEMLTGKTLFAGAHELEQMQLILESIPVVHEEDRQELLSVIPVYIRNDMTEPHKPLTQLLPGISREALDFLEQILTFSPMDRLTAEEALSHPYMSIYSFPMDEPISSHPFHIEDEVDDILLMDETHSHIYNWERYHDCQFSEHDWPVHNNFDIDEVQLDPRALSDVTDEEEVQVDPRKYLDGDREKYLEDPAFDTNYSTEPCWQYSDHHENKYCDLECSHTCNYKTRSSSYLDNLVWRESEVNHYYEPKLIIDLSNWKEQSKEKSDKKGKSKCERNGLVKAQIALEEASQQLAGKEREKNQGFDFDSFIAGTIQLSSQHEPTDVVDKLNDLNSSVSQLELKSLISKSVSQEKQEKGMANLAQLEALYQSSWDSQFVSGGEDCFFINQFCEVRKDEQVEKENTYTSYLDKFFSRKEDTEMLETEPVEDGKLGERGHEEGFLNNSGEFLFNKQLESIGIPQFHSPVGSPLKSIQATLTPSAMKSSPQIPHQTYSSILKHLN
Chain of HUNK (P57058 whole entry): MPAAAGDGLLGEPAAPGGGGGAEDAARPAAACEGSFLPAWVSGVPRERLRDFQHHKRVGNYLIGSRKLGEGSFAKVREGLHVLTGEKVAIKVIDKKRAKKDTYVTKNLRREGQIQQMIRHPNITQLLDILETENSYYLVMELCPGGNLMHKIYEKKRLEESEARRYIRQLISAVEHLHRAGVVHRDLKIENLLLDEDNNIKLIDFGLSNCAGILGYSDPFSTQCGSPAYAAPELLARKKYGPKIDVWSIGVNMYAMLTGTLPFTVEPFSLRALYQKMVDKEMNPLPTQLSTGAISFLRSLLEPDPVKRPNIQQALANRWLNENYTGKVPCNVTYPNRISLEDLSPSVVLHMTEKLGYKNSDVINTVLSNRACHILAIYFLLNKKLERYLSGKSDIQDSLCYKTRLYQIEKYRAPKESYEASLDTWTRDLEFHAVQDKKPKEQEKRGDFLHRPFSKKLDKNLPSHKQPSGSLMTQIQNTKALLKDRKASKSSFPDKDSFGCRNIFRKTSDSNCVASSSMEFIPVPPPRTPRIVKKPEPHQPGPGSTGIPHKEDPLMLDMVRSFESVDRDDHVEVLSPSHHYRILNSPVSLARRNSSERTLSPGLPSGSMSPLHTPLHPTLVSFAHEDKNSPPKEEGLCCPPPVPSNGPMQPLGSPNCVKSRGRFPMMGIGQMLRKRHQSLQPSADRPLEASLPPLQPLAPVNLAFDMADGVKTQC

Cc1ccc(NC(=O)c2cccc(C(F)(F)F)c2)cc1Nc1cc(-c2cccnc2)nc2[nH]ccc12 [HZX-02-059]
remaining binding at 1 µM (SRMS): 100% | remaining binding at 1 µM (SRPK2): 83% | remaining binding at 1 µM (PRKD3): 100% | remaining binding at 1 µM (FLT3): 91% | remaining binding at 1 µM (GRK3): 98% | remaining binding at 1 µM (MAP4K5): 73% | remaining binding at 1 µM (EPHB4): 30% | remaining binding at 1 µM (GRK7): 80% | remaining binding at 1 µM (ERK3): 100% | remaining binding at 1 µM (BUB1): 100% | remaining binding at 1 µM [1]: 100% | remaining binding at 1 µM (GRK4): 83% | remaining binding at 1 µM (HUNK): 91% | remaining binding at 1 µM (PIK3CG): 96% | remaining binding at 1 µM (PAK3): 27% | remaining binding at 1 µM (DAPK2): 100% | remaining binding at 1 µM (ULK2): 99% | remaining binding at 1 µM (FRK): 4.7% | remaining binding at 1 µM [2]: 48% | remaining binding at 1 µM (NLK): 100% | remaining binding at 1 µM (EPHA2): 4% | remaining binding at 1 µM (TAOK2): 98% | remaining binding at 1 µM [3]: 80% | remaining binding at 1 µM (CDK5): 100%
